Test results taken from patent US6509377B1, “Use of a 2-hydroxy-4-trifluoromethylbenzoic acid derivatives as inhibitors of the activation of the nuclear transcription factor NF-κB” (J. Uriach & Cia, S.A., priority 1999, dated 2003).

Assay: Cell viability of COLO 205 cells (EZ4U)
Format: cell-based
Conditions: human, COLO 205 cells (colon adenocarcinoma), read-out: Percentage of cell viability
Protocol: Several cell lines obtained from the American Type Culture Collection (ATCC) were cultured at 37° C. and under a 5% CO2 atmosphere. Each cell line was grown in an appropriate culture medium and within the exponential phase (Table I).
For the cell viability studies 24-well plates were used, where 0.5×10^6 cells/ml (for 24-hour studies), 0.25×10^6 cells/ml (for 48-hour studies) or 0.125×10^6 cells/ml (for 72-hour studies) were incubated. Next, different concentrations of HTB (1-3 mM) were added and cells were incubated for different time periods (37° C., 5% CO2). After incubation, the supernatant from each well was extracted, and cells were washed with culture medium without fetal calf serum. Then, the supernatant was extracted and 200 μl culture medium without fetal calf serum were added to each well. In addition, 20 μl substrate were added to determine cell viability. This method is based on the ability of viable cells to transform the colourless substrate into a coloured substance that is excreted to the supernatant (EZ4U, Biomedica Gmbh.). After incubating cells for 1 hour at 37° C. and 5% CO2, 200 μl supernatant were collected and the absorbance was measured at 450 nm.
The absorbance was also determined at 620 nm as a measure of the existing non-specific value.

With O=C(O)c1ccc(C(F)(F)F)cc1O [HTB, 2-hydroxy-4-trifluoromethylbenzoic acid] the viability at 0 h, 1 mM (1 mM HTB, 0 hours) was 100%, the viability at 2 h, 1 mM (1 mM HTB, 2 hours) was 100% and the viability at 5 h, 1 mM (1 mM HTB, 5 hours) was 87.2%. The viability at 24 h, 1 mM (1 mM HTB, 24 hours) was 64.8%, the viability at 48 h, 1 mM (1 mM HTB, 48 hours) was 37.4% and the viability at 72 h, 1 mM (1 mM HTB, 72 hours) was 7.6%. For the same compound, the viability at 0 h, 3 mM (3 mM HTB, 0 hours) was 100%, the viability at 2 h, 3 mM (3 mM HTB, 2 hours) was 94.5% and the viability at 5 h, 3 mM (3 mM HTB, 5 hours) was 69.2%. For the same compound, the viability at 24 h, 3 mM (3 mM HTB, 24 hours) was 39.6% and the viability at 48 h, 3 mM (3 mM HTB, 48 hours) was 14.3%.
